Measured values from ChEMBL document CHEMBL5120939, “Novel Isoindolinone-Based Analogs of the Natural Cyclic Peptide Fenestin A: Synthesis and Antitumor Activity” (ACS Med Chem Lett, 2022).

Key:
Type in all cases: functional
HeLa [1] = experiment: Induction of cell cycle arrest in human HeLa cells assessed as accumulation at G2/M phase at 24.6 uM by RNAse A/PI staining based flow cytometric analysis relative to control
HeLa [2] = experiment: Induction of cell cycle arrest in human HeLa cells assessed as S phase cells at 12.3 uM incubated for 24 hrs by RNAse A/PI staining based flow cytometric analysis (reference value: 20.5%)
HeLa [3] = experiment: Induction of apoptosis in human HeLa cells assessed as early apoptotic cells at 13.2 uM incubated for 48 hrs by annexinV-FITC/propidium iodide staining based flow cytometry analysis (reference value: 0.1%)
HeLa [4] = experiment: Induction of cell cycle arrest in human HeLa cells assessed as 2N cells at 12.3 uM incubated for 12 hrs by RNAse A/PI staining based flow cytometric analysis (reference value: 29.9%)
HeLa [5] = experiment: Induction of cell cycle arrest in human HeLa cells assessed as 4N cells at 12.3 uM incubated for 24 hrs by RNAse A/PI staining based flow cytometric analysis (reference value: 5.37%)
HeLa [6] = experiment: Induction of cell cycle arrest in human HeLa cells assessed as <2N cells at 12.3 uM incubated for 24 hrs by RNAse A/PI staining based flow cytometric analysis (reference value: 41.6%)
HeLa [7] = experiment: Induction of cell cycle arrest in human HeLa cells assessed as >4N cells at 6.2 uM incubated for 48 hrs by RNAse A/PI staining based flow cytometric analysis (reference value: 2.61%)
HeLa [8] = experiment: Induction of mitochondrial membrane potential loss in human HeLa cells assessed as decrease in fluorescence intensity […] at 12.3 uM by Rhodamine 123 staining based flow cytometric analysis (reference value: 58.0%); parameters: scale not given: the % may be the effect or the level left
HeLa [9] = experiment: Induction of cell cycle arrest in human HeLa cells assessed as 2N cells at 12.3 uM incubated for 48 hrs by RNAse A/PI staining based flow cytometric analysis (reference value: 29.9%)
HeLa [10] = experiment: Induction of cell cycle arrest in human HeLa cells assessed as >4N cells at 12.3 uM incubated for 12 hrs by RNAse A/PI staining based flow cytometric analysis (reference value: 2.61%)
HeLa [11] = experiment: Induction of cell cycle arrest in human HeLa cells assessed as <2N cells at 24.6 uM incubated for 48 hrs by RNAse A/PI staining based flow cytometric analysis (reference value: 41.6%)

For `CC[C@H](C)[C@@H]1NC(=O)[C@H](CC(C)C)NC(=O)[C@@H]2CSCN2C(=O)[C@@H]2CSCN2C(=O)CN2C(=O)c3ccccc3[C@@]2(O)CN(Cc2ccccc2)C1=O`, which Activity (HeLa [1]) is on record?
The Activity was 47.5%.

What about the Activity (HeLa [2]) of the same compound?
The Activity was 10.2%.

What about the Activity (HeLa [3]) of the same compound?
The Activity was 5.6%.

And the Activity (HeLa [4])?
Its Activity is 28.8%.

What about the Activity (HeLa [5]) of the same compound?
The Activity was 25.1%.

What about the Activity (HeLa [6]) of the same compound?
Its Activity is 33%.

What about the Activity (HeLa [7]) of the same compound?
The Activity was 9.53%.

What about the Activity (HeLa [8]) of the same compound?
The Activity was 32.3%.

And the Activity (HeLa [9])?
The Activity was 28.1%.

And the Activity (HeLa [10])?
Its Activity is 9.83%.

What about the Activity (HeLa [11]) of the same compound?
The Activity was 14.4%.
